According to patent publication US6251897A, “6-phenyltetrahydro-1,3-oxazin-2-one derivative and pharmaceutical composition containing the same” (Nikken Chemicals Co., LTD, priority 1996, dated 2001):
pIC50: −log10 of the molar value.

Assays:
[1] = tested on: rat neutrophils; test: Inhibition of super oxide anion release from rat neutrophils (A23187-stimulated chemiluminescence); assay type: cell-based, rat (Wister); settings: Neutrophil, stimulated with 0.3 μM calcium ionophore A23187, read-out: Inhibitory action of super oxide anion release from rat neutrophils IC50
Method: The release of super oxide anions was measured so as to study the inhibitory effects of the compound on inflammatory leukocytes, that is, neutrophils.
Blood sample was obtained from Wister rats anesthetized with ether. It was superposed on a blood cell separation solution (Polymorphoprep 1.113, made by Naicomet Co. (phonetic)) and the neutrophils were separated by centrifugation. The neutrophils were resuspended in a Hank's balanced salt solution at a concentration of 0.5×10^4 cell/ml. 0.1 mM of Lusigenin and the test substance dissolved in DMSO were added to 2 ml of the cell-suspension. The chemiluminescence generated by stimulation of 0.3 μM calcium ionophore A23187 was measured by a chemiluminescence reader so as to evaluate the release of super oxide anions.

[2] = tested on: Type IV PDE; test: PDE inhibitory activity, type IV isozyme (3H-cAMP hydrolysis); assay type: biochemical; settings: partially purified from rat neutrophils, 30° C., 30 minutes
Method: Type I, III, IV, and V PDE isozymes were prepared to study the PDE inhibitory activities and selectivities with the compound of the invention [Trends Pharmacol. Sci., 12, 19-27 (1992)]. Type I PDE was purchased from Sigma Corp. Type III, IV, and V PDE isozymes were partially purified from rats platelets (Type III and V) or neutrophils (Type IV). Each enzyme source was homogenized in a buffer (pH 6.5) containing 20 mM bisTris, 2 mM EDTA (ethylenediamine tetraacetate), 0.1 mM PMSF (phenylmethylsulfonyl fluoride), 5 mM 2-mercaptoethanol, 0.001 mM pepstatin, and 0.01 mM leupeptin and was centrifuged at 30,000×G for 30 minutes to obtain a supernatant, which was applied to an ion exchange column (Q-sepharose First Flow, Pharmacia Corp.) and was eluted with 0 to 1M sodium acetate. Partially purified isozymes were identified by observing the effects of conventional inhibitors.
Each PDE isozyme and the test compound dissolved in DMSO (dimethyl sulfoxide) were added to 50 mM Tris-HCl buffer containing 5 mM magnesium chloride. ^3 H-cAMP (for type III and IV PDE) or ^3 H-cGMP (for type I and V PDE) were added as substrates and were reacted at 30° C. for 30 minutes. The reaction was terminated by placing the test tube in boiling water of 100° C. for 5 minutes. The nucleotides formed by PDE were broken down by 5'-nucleotidase to ^3 H-adenosine or ^3 H-guanosine. The unreacted substrate and reaction product were separated through an ion-exchange column (QAE sephadex, Pharmacia Corp.) The eluted ^3 H-nucleoside was measured for its radioactivity by a liquid scintillation counter. The inhibiting activities of the compound of the present invention are shown by the IC50 value (M). Further, the inhibitory activities of the test samples against Type I, III, and V are 1/10 or less than that against type IV.

[3] = tested on: antigen-induced bronchospasm in guinea pig; test: Inhibitory effect on antigen-induced bronchospasm (Konzett-Roessler, ovalbumin-sensitized); assay type: in vivo, guinea pig (Hartley male); settings: Cavia porcellus; intravenous, 10 minutes before antigen (0.2 mg/kg OA i.v.); read-out: Action for suppressing antigen-induced bronchospasms ED50
Method: A Hartley male guinea pig was sensitized by intramuscular administration of […] Ovalbumin (OA) on first day and fourth day, and used after 24th day. A trachial canula was introduced in the guinea pig anesthetized with pentobarbital and artificial ventilation was performed 25 to 29 days after the first sensitization. The overflow of the ventilation was measured by the Konzett-Roessler method while 0.2 mg/kg OA were administered intravenously. The test compound was dissolved in polyethylene glycol 400 and intravenously administered 10 minutes before administration of the antigens.

Row | pIC50 [1] | pIC50 [2] | Compound | ED50 [3]
1 | 5.39 | 4.72 | COc1ccc(C2CCN(C)C(=O)O2)cc1OC (stereo not drawn) [Compound No. 8, 6-(3,4-dimethoxyphenyl)-3-methyl-3,4,5,6-tetrahydro-2H-1,3-oxazin-2-one] | –
2 | 7.05 | 5.89 | COc1ccc(C2CCN(C)C(=O)O2)cc1OC1CCCC1 (stereo not drawn) [Compound No. 10, 6-(3-Cyclopentyloxy-4-methoxyphenyl)-3-methyl-3,4,5,6-tetrahydro-2H-1,3-oxazin-2-one] | 0.95 mg/kg
3 | – | 5.26 | COc1ccc(C2CCN(Cc3ccccn3)C(=O)O2)cc1OC1CCCC1 (stereo not drawn) [Compound No. 16] | 2.1 mg/kg
4 | – | 6.89 | COc1ccc(C2CCNC(=O)O2)cc1OC1Cc2ccccc2C1 (stereo not drawn) [Compound No. 24, 6-[3-(2-indanyloxy)-4-methoxyphenyl]-3,4,5,6-tetrahydro-2H-1,3-oxazin-2-one] | 1.6 mg/kg
5 | – | 6.72 | COc1ccc(C2CCN(C)C(=O)O2)cc1OC1Cc2ccccc2C1 (stereo not drawn) [Compound No. 25, 6-[3-(2-indanyloxy)-4-methoxyphenyl]-3-methyl-3,4,5,6-tetrahydro-2H-1,3-oxazin-2-one] | 0.061 mg/kg
6 | – | 7.30 | COc1ccc(C2(C)CCNC(=O)O2)cc1OC1Cc2ccccc2C1 (stereo not drawn) [Compound No. 40, 6-[3-(2-indanyloxy)-4-methoxyphenyl]-6-methyl-3,4,5,6-tetrahydro-2H-1,3-oxazin-2-one] | 0.47 mg/kg
7 | – | 7.18 | COc1ccc(C2(C)CCN(C)C(=O)O2)cc1OC1Cc2ccccc2C1 (stereo not drawn) [Compound No. 43, 3,6-dimethyl-6-[3-(2-indanyloxy)-4-methoxyphenyl]-3,4,5,6-tetrahydro-2H-1,3-oxazin-2-one] | 0.29 mg/kg
8 | – | 5.70 | COc1ccc(C2CCN(C)C(=O)O2)cc1OCC1CC1 (stereo not drawn) [Compound No. 49, 6-(3-cyclopropylmethyloxy-4-methoxyphenyl)-3-methyl-3,4 5,6-tetrahydro-2H-1,3-oxazin-2-one] | 3.1 mg/kg
9 | – | 5.89 | COc1ccc(C2CCN(C)C(=O)O2)cc1OCC1(c2ccccc2)CC1 (stereo not drawn) [Compound No. 57, 6-[4-methoxy-3-[(1-phenylcyclopropyl)methyloxy]phenyl]-3-methyl-3,4,5,6-tetrahydro-2H-1,3-oxazin-2-one] | 15.9 mg/kg
10 | – | 6.51 | CCN1CCC(c2ccc(OC)c(OC3Cc4ccccc4C3)c2)OC1=O (stereo not drawn) [Compound No. 71, 3-ethyl-6-[3-(2-indanyloxy)-4-methoxyphenyl]-3,4,5,6-tetrahydro-2H-1,3-oxazin-2-one] | 2.67 mg/kg

Continued, compound first:

Row | Compound | pIC50 [1] | pIC50 [2] | ED50 [3]
11 | COc1ccc(C2CCNC(=O)O2)cc1OC (stereo not drawn) [Compound No. 1, 6-(3,4-dimethoxyphenyl)-3,4,5,6-tetrahydro-2H-1,3-oxazin-2-one] | 5.06 | 5.00 | –
12 | COc1ccc(C2CCNC(=O)O2)cc1OC1CCCC1 (stereo not drawn) [Compound No. 2, 6-(3-cyclopentyloxy-4-methoxyphenyl)-3,4,5,6-tetrahydro-2H-1,3-oxazin-2-one] | 6.26 | 5.92 | 0.23 mg/kg
13 | COc1ccc(C2(C)CCNC(=O)O2)cc1OC (stereo not drawn) [Compound No. 5, 6-(3,4-dimethoxyphenyl)-6-methyl-3,4,5,6-tetrahydro-2H-1,3-oxazin-2-one] | 5.62 | 5.17 | 0.3 mg/kg
14 | COc1ccc(C2CCN(Cc3ccccc3)C(=O)O2)cc1OC (stereo not drawn) [Compound No. 9, 3-benzyl-6-(3 4-dimethoxyphenyl)-3,4,5,6-tetrahydro-2H-1,3-oxazin-2-one] | 5.64 | 4.66 | –
15 | COc1ccc(C2CCN(Cc3ccncc3)C(=O)O2)cc1OC1CCCC1 (stereo not drawn) [Compound No. 14, 6-(3-cyclopentyloxy-4-methoxyphenyl)-3-(4-pyridylmethyl)-3,4,5,6-tetrahydro-2H-1,3-oxazin-2-one] | – | 5.21 | 2.4 mg/kg
16 | COc1ccc(C2CCN(Cc3cccnc3)C(=O)O2)cc1OC1CCCC1 (stereo not drawn) [Compound No. 20, 6-(3-cyclopentyloxy-4-methoxyphenyl)-3-(3-pyridylmethyl)-3,4,5,6-tetrahydro-2H-1,3-oxazin-2-one] | – | 5.46 | 8.5 mg/kg
17 | COc1ccc(C2(C)CCN(C)C(=O)O2)cc1OC1CCCC1 (stereo not drawn) [Compound No. 21, 6-(3-cyclopentyloxy-4-methoxyphenyl)-3,6-dimethyl-3,4,5,6-tetrahydro-2H-1,3-oxazin-2-one] | – | 6.18 | 0.29 mg/kg
18 | COc1ccc(C2CCNC(=O)O2)cc1OCCc1ccccc1 (stereo not drawn) [Compound No. 23, 6-(4-methoxy-3-phenethyloxyphenyl)-3,4,5,6-tetrahydro-2H-1,3-oxazin-2-one] | – | 5.82 | 13.6 mg/kg
19 | CCC1(c2ccc(OC)c(OC3CCCC3)c2)CCNC(=O)O1 (stereo not drawn) [Compound No. 26, 6-(3-cyclopentyloxy-4-methoxyphenyl)-6-ethyl-3,4,5,6-tetrahydro-2H-1,3-oxazin-2-one] | – | 5.46 | 2.4 mg/kg
20 | CCN1CCC(c2ccc(OC)c(OC3CCCC3)c2)OC1=O (stereo not drawn) [Compound No. 28, 6-(3-cyclopentyloxy-4-methoxyphenyl)-3-ethyl-3,4,5,6-tetrahydro-2H-1,3-oxazin-2-one] | – | 5.77 | 7.4 mg/kg
21 | COc1ccc(C2(C)CCNC(=O)O2)cc1OCCc1ccccc1 (stereo not drawn) [Compound No. 46, 6-(4-methoxy-3-phenethyloxyphenyl)-6-methyl-3,4,5,6-tetrahydro-2H-1,3-oxazin-2-one] | – | 6.31 | 11.4 mg/kg
22 | COc1ccc(C2(C)CCNC(=O)O2)cc1OCC1CC1 (stereo not drawn) [Compound No. 50, 6-(3-cyclopropylmethyloxy-4-methoxyphenyl)-6-methyl-3,4,5,6-tetrahydro-2H-1,3-oxazin-2-one] | – | 5.96 | 0.3 mg/kg
23 | COc1ccc(C2(C)CCN(C)C(=O)O2)cc1OCC1CC1 (stereo not drawn) [Compound No. 51, 6-(3-cyclopropylmethyloxy-4-methoxyphenyl)-3,6-dimethyl-3,4,5,6-tetrahydro-2H-1,3-oxazin-2-one] | – | 5.72 | 2.23 mg/kg
24 | COc1ccc(C2CCNC(=O)O2)cc1OCC1(c2ccccc2)CC1 (stereo not drawn) [Compound No. 56, 6-[4-methoxy-3-[(1-phenylcyclopropyl)methyloxy]phenyl]-3,4,5,6-tetrahydro-2H-1,3-oxazin-2-one] | – | 6.03 | 1.72 mg/kg
25 | COc1ccc(C2CCNC(=O)O2)cc1OCC1CCC1 (stereo not drawn) [Compound No. 61, 6-(3-cyclobutylmethyloxy-4-methoxyphenyl)-3,4,5,6-tetrahydro-2H-1,3-oxazin-2-one] | – | 5.49 | 1.84 mg/kg
26 | COc1ccc(C2CCNC(=O)O2)cc1OCC(C)C (stereo not drawn) [Compound No. 65, 6-[4-methoxy-3-(2-methylpropoxy)phenyl]-3,4,5,6-tetrahydro-2H-1,3-oxazin-2-one] | – | 5.66 | 0.22 mg/kg
27 | COc1ccc(C2CCN(C)C(=O)O2)cc1OCC(C)C (stereo not drawn) [Compound No. 66, 6-[4-methoxy-3-(2-methylpropoxy)phenyl]-3-methyl-3,4,5,6-tetrahydro-2H-1,3-oxazin-2-one] | – | 5.42 | 0.051 mg/kg
28 | COc1ccc(C2CCNC(=O)O2)cc1OCC1CCCC1 (stereo not drawn) [Compound No. 76, 6-(3-cyclopentylmethyloxy-4-methoxyphenyl)-3,4,5,6-tetrahydro-2H-1,3-oxazin-2-one] | – | 5.54 | 0.27 mg/kg
29 | COc1ccc(C2(C)CCNC(=O)O2)cc1OCC(C)C (stereo not drawn) [Compound No. 81, 6-[4-methoxy-3-(2-methylpropoxy)phenyl]-6-methyl-3,4,5,6-tetrahydro-2H-1,3-oxazin-2-one] | – | 5.89 | 0.028 mg/kg
30 | COc1ccc(C2(C)CCN(C)C(=O)O2)cc1OCC(C)C (stereo not drawn) [Compound No. 82, 3,6-dimethyl-6-[4-methoxy-3-(2-methylpropoxy)phenyl]-3,4,5,6-tetrahydro-2H-1,3-oxazin-2-one] | – | 5.72 | 0.045 mg/kg
